Test results taken from patent US8664203B2, “Thiazole derivatives and their use as P2Y12 receptor antagonists” (Actelion Pharmaceuticals Ltd., priority 2009, dated 2014).

Target: T1, human P2Y12 receptor (Homo sapiens, UniProt Q9H244)
T1 construct: expressed in transfected cells; host or cells: CHO cells
Assay: P2Y12 receptor binding assay
Conditions: CHO cells with recombinant expression of the human P2Y12 receptor; tritium-labeled 2-methyl-S-ADP; RT, 2 hours
Method: P2Y12 Receptor Binding Assay
Chinese Hamster Ovary (CHO) cells with recombinant expression of the human P2Y12 receptor were cultured in 24 well cell-culture plates. Cells were washed three times with binding buffer (50 mM Tris pH 7.4, 100 mM NaCl, 1 mM EDTA, 0.5% BSA). The cells were then incubated with 0.5 ml per well binding buffer containing tritium-labeled 2-methyl-thio-adenosine 5′-diphosphate (2-methyl-S-ADP) (between 100′000 and 300′000 dpm per well) and various concentrations of test compounds. After incubation at RT for 2 hours, cells were washed three times with binding buffer. Then, cells were solubilized by addition of 0.5 ml solubilization buffer (SDS, NaOH, EDTA). The content of each well was then transferred into beta-counter vials and 2.0 ml of Ultima Gold Scintillation liquid was added.

T1 sequence (Q9H244 whole entry): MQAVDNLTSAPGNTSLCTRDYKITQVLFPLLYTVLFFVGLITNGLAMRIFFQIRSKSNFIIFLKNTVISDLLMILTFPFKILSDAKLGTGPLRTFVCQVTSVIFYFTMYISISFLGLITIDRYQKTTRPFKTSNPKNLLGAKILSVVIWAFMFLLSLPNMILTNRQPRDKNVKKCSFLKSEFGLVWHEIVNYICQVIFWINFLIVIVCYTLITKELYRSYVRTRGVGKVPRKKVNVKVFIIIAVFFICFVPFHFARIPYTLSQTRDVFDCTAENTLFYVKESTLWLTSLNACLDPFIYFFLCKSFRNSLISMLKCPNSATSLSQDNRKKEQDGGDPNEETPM

Row | SMILES | IC50 [µM]
1 | CCCCOC(=O)N1CCN(C(=O)[C@H](CP(=O)(N[C@@H](C)C(=O)OCC)N[C@@H](C)C(=O)OCC)NC(=O)c2csc(-c3ccccc3)n2)CC1 [Example 58, N,N′-Bis-((S)-1-Ethoxycarbonylethyl)-(R)-2-[(2-phenyl-thiazole-4-carbonyl)-amino]-3-oxo-3-(4-butoxy-carbonyl-piperazin-1-yl)-propyl-phosphonic acid diamide] | 1.22
2 | CCCCOC(=O)N1CCN(C(=O)[C@H](CP(=O)(O)O)NC(=O)c2nc(-c3ccccc3)sc2-c2ccccc2)CC1 [Example 43, 4-{(R)-2-[(2,5-Diphenyl-thiazole-4-carbonyl)-amino]-3-phosphono-propionyl}-piperazine-1-carboxylic acid butyl ester] | 0.013
3 | CCCCOC(=O)N1CCN(C(=O)[C@H](CP(=O)(O)O)NC(=O)c2nc(-c3ccccc3)sc2N(C)CCCC)CC1 [Example 47, 4-((R)-2-{[5-(Butyl-methyl-amino)-2-phenyl-thiazole-4-carbonyl]-amino}-3-phosphono-propionyl)-piperazine-1-carboxylic acid butyl ester] | 0.003
4 | CCCCOC(=O)N1CCN(C(=O)[C@H](CP(=O)(OCOC(C)=O)OCOC(C)=O)NC(=O)c2csc(-c3ccccc3)n2)CC1 [Example 57, 4-{(R)-3-[Bis-(acetoxymethoxy)-phosphoryl]-2-[(2-phenyl-thiazole-4-carbonyl)-amino]-propionyl}-piperazine-1-carboxylic acid butyl ester] | 0.005
5 | CCCCOC(=O)N1CCN(C(=O)[C@H](Cc2ccc(P(=O)(OCC)OCC)cc2)NC(=O)c2csc(-c3ccccc3)n2)CC1 [Example 10, 4-{(S)-3-[4-(Diethoxy-phosphoryl)-phenyl]-2-[(2-phenyl-thiazole-4-carbonyl)-amino]-propionyl}-piperazine-1-carboxylic acid butyl ester] | 0.635
6 | CCCCOC(=O)N1CCN(C(=O)[C@H](CCC(=O)O)NC(=O)c2csc(-c3ccccc3Oc3ccccc3)n2)CC1 [Example 3, 4-((S)-4-Carboxy-2-{[2-(2-phenoxy-phenyl)-thiazole-4-carbonyl]-amino}-butyryl)-piperazine-1-carboxylic acid butyl ester] | 1.47
7 | CCCCOC(=O)N1CCN(C(=O)[C@H](CCC(=O)O)NC(=O)c2csc(-c3cccc(OC)c3)n2)CC1 [Example 4, 4-((S)-4-Carboxy-2-{[2-(3-methoxy-phenyl)-thiazole-4-carbonyl]-amino}-butyryl)-piperazine-1-carboxylic acid butyl ester] | 0.249
8 | CCCCOC(=O)N1CCN(C(=O)[C@H](CP(=O)(O)O)NC(=O)c2nc(-c3ccccc3)c(-c3ccccc3)s2)CC1 [Example 49, 4-{(R)-2-[(4,5-Diphenyl-thiazole-2-carbonyl)-amino]-3-phosphono-propionyl}-piperazine-1-carboxylic acid butyl ester] | 0.152
9 | CCCCOC(=O)N1CCN(C(=O)[C@H](CCC(=O)O)NC(=O)c2nc(-c3ccccc3)sc2[C@H]2C[C@@H]2COC)CC1 [Example 18, 4-((S)-4-Carboxy-2-{[5-((1S,2S)-2-methoxymethyl-cyclopropyl)-2-phenyl-thiazole-4-carbonyl]-amino}-butyryl)-piperazine-1-carboxylic acid butyl ester] | 0.011
10 | CCCCOC(=O)N1CCN(C(=O)[C@H](Cc2ccc(P(=O)(O)O)cc2)NC(=O)c2csc(-c3ccccc3)n2)CC1 [Example 11, 4-[(S)-2-[(2-Phenyl-thiazole-4-carbonyl)-amino]-3-(4-phosphono-phenyl)-propionyl]-piperazine-1-carboxylic acid butyl ester] | 0.001
